{"source": "ChEMBL document CHEMBL5653631", "about": "“A Potent and Selective ULK1 Inhibitor Suppresses Autophagy and Sensitizes Cancer Cells to Nutrient Stress” (iScience, 2018)", "key": {"[1]": {"biological_target": "Ribosomal protein S6 kinase alpha-6 (Homo sapiens) (UniProt Q9UK32)", "assay": "Inhibition of human recombinant RSK4 at 40 nM in presence of ATP by radiometric assay relative to control"}, "[2]": {"biological_target": "T1, MAPK/MAK/MRK overlapping kinase (Homo sapiens) (UniProt Q9UQ07)", "T1 sequence (whole entry)": "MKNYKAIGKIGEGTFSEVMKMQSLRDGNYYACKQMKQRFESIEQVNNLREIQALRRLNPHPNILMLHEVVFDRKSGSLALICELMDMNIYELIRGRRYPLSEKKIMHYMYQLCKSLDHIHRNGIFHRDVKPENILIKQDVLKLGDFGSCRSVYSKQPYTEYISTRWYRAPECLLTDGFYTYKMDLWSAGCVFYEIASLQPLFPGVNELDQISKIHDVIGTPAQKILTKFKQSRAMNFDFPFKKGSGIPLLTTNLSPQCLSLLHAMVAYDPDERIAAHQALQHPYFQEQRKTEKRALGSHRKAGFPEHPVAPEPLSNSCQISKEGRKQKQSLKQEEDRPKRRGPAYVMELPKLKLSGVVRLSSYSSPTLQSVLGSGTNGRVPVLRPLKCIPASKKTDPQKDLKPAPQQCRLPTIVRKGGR", "assay": "Inhibition of human recombinant MOK at 40 nM in presence of ATP by radiometric assay relative to control"}, "[3]": {"biological_target": "Insulin receptor (Homo sapiens) (UniProt P06213)", "assay": "Inhibition of human recombinant INSR at 40 nM in presence of ATP by radiometric assay relative to control"}, "[4]": {"biological_target": "Tyrosine-protein kinase FRK (Homo sapiens) (UniProt P42685)", "assay": "Inhibition of human recombinant FRK at 500 nM in presence of ATP by radiometric assay relative to control"}, "[5]": {"biological_target": "Calcium/calmodulin-dependent protein kinase type 1 (Homo sapiens) (UniProt Q14012)", "assay": "Inhibition of human recombinant CaMK1a at 500 nM in presence of ATP by radiometric assay relative to control"}, "[6]": {"biological_target": "Protein kinase C theta type (Homo sapiens) (UniProt Q04759)", "assay": "Inhibition of human recombinant PKCt at 500 nM related to control ULK1"}, "[7]": {"biological_target": "Tyrosine-protein kinase Fes/Fps (Homo sapiens) (UniProt P07332)", "assay": "Inhibition of human recombinant FES at 500 nM in presence of ATP by radiometric assay relative to control"}, "[8]": {"biological_target": "T2, Serine/threonine-protein kinase 3 (Homo sapiens) (UniProt Q13188)", "T2 sequence (whole entry)": "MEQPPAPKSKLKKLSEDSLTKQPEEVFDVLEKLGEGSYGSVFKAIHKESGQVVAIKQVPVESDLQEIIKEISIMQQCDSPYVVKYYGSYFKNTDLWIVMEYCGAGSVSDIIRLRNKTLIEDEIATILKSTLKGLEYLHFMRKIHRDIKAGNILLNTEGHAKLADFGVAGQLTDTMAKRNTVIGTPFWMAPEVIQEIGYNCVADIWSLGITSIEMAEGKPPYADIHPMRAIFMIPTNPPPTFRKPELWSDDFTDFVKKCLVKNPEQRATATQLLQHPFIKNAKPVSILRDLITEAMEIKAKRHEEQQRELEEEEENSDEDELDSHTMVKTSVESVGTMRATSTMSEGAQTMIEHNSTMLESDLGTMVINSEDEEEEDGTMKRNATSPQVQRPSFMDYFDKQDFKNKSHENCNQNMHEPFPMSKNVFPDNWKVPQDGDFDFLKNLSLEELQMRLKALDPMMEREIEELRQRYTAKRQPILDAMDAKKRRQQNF", "assay": "Inhibition of human recombinant MST2 at 500 nM in presence of ATP by radiometric assay relative to control"}, "[9]": {"biological_target": "Mast/stem cell growth factor receptor Kit (Homo sapiens) (UniProt P10721)", "assay": "Inhibition of human recombinant KIT at 15 nM related to control ULK1"}, "[10]": {"biological_target": "Tau-tubulin kinase 1 (Homo sapiens) (UniProt Q5TCY1)", "assay": "Inhibition of human recombinant TTBK1 at 15 nM in presence of ATP by radiometric assay relative to control"}, "[11]": {"biological_target": "Activin receptor type-2A (Homo sapiens) (UniProt P27037)", "assay": "Inhibition of human recombinant ACTR2 at 15 nM related to control ULK1"}, "[12]": {"biological_target": "T3, Ephrin type-B receptor 4 (Homo sapiens) (UniProt P54760)", "T3 sequence (whole entry)": "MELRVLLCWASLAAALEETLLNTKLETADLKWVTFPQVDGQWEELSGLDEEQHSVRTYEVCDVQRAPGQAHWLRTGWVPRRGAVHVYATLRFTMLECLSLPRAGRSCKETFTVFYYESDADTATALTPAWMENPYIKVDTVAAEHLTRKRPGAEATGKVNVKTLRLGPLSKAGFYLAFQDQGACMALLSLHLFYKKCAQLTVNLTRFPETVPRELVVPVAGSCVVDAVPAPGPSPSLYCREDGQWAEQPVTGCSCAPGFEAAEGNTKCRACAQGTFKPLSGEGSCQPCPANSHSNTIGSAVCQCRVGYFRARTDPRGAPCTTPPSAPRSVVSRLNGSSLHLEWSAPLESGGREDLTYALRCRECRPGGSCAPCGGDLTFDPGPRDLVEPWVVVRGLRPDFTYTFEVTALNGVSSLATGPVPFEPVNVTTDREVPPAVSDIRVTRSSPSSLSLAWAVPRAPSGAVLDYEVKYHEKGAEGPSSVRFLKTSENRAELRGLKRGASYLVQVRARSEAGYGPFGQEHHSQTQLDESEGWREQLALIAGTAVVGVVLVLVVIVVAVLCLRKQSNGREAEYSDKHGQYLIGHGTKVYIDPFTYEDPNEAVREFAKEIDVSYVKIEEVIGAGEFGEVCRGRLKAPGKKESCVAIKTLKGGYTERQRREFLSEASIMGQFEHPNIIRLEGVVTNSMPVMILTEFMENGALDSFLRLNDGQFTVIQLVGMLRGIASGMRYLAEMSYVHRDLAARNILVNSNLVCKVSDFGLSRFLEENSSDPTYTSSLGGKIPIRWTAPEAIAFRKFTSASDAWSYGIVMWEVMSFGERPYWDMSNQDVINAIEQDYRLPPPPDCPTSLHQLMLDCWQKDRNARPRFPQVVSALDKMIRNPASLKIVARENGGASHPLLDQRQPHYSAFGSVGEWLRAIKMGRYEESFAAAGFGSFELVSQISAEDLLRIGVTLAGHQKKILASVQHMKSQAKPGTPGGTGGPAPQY", "assay": "Inhibition of human recombinant EphB4 at 15 nM related to control ULK1"}}, "data": [{"compound": "O=C(N[C@@H](C1CC1)C(F)(F)F)c1cc(-c2cnn3cc(-c4ccc(F)cc4)cnc23)cs1", "values": [{"measurement": "inhibition", "setting": "[1]", "value": 0, "unit": "%"}, {"measurement": "inhibition", "setting": "[2]", "value": 0, "unit": "%"}, {"measurement": "inhibition", "setting": "[3]", "value": 0, "unit": "%"}]}, {"compound": "CNC(=O)c1ccccc1Oc1nc(Nc2cc(OC)c(OC)c(OC)c2)ncc1Br", "values": [{"measurement": "inhibition", "setting": "[4]", "value": 9, "unit": "%"}, {"measurement": "inhibition", "setting": "[5]", "value": 0, "unit": "%"}, {"measurement": "fold change (FC)", "setting": "[6]", "value": 0}, {"measurement": "inhibition", "setting": "[7]", "value": 28, "unit": "%"}, {"measurement": "inhibition", "setting": "[8]", "value": 0, "unit": "%"}]}, {"compound": "CC(C)[C@H](NC(=O)c1cc(-c2cnn3cc(-c4ccc(OCCN5CCCCC5)cc4)cnc23)cs1)C(F)(F)F", "values": [{"measurement": "fold change (FC)", "setting": "[9]", "value": 0}, {"measurement": "inhibition", "setting": "[10]", "value": 0, "unit": "%"}, {"measurement": "fold change (FC)", "setting": "[11]", "value": 0.05}, {"measurement": "fold change (FC)", "setting": "[12]", "value": 0.03}]}]}
